Where two headings read alike, the source gives them in different places.
Experiments:
neuronal cell = conditions: cited from earlier work
[1] = molecular target: human EAAT1 excitatory amino acid transporter (Homo sapiens, UniProt P43003); experiment: electrogenic amino acid uptake in EAAT1-expressing Xenopus oocytes; conditions: for electrogenic uptake in EAAT1-expressing oocytes: 1000 μM
Description: (§3) Such RNA preparations were each introduced into Xenopus oocytes as descnbed in Example 3 to enable expression therein. Amino acid uptake experiments were performed on such oocytes expressing each of the glutamate transporters, also as described in Example 3.
(§4) These experiments were performed essentially as described for the ASCT1 transporter in Example 3.

[2] = molecular target: T1, human ASCT1 neutral amino acid transporter (Homo sapiens, UniProt P43007); experiment: radiolabeled amino acid uptake in ASCT1 RNA-injected Xenopus oocytes; format: cell-based; conditions: Amino Acid (1 mM); n = 5
T1 construct: expressed in transfected cells; host or cells: Xenopus laevis oocytes injected with in vitro transcribed RNA (pOTV vector)
T1 sequence (P43007 1-532): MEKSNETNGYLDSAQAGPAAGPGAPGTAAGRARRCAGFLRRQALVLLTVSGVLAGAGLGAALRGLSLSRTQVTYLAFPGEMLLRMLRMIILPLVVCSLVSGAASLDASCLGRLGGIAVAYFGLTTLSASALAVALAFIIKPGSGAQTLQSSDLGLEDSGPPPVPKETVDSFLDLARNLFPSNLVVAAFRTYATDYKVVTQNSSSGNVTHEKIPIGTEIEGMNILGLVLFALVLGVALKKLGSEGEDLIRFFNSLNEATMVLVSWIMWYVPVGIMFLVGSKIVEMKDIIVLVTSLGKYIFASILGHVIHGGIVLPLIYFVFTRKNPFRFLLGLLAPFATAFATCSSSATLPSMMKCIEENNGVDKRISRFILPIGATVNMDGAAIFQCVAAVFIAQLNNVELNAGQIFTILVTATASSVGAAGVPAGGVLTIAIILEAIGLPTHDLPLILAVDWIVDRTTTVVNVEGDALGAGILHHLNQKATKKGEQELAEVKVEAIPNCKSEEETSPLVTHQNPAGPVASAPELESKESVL
Text: (§1) Following the PCR, the product of the amplification reaction was purified using standard techniques (Saiki et al., 1988, Science 239: 487-491). The DNA then digested with the restriction enzymes KpnI and XbaI and then cloned into the polylinker of an oocyte transcription vector (POTV; see Wang el al., 1991, Nature 352: 729-731) that had been digested with KpnI and XbaI. Synthetic RNA was then transcribed in vitro from this clone using the method of Kavanaugh et al. (1992, J. Biol. Chem. 267: 22007-22009) employing bacteriophage T7 RNA polymerase (New England Biolabs, Beverly, Mass.). 20-50 nL of ASCT1 RNA (at a concentration of about 400 μg/mL) was injected into defolliculated stage V-VI Xenopus oocytes excised from female Xenopus laevis anesthetized by immersion in 3-aminobenzoic acid for 60 min. Excised oocytes were treated with collagenase II (Sigma Chemical Co., St. Louis, Mo.) in calcium-free Barth's saline solution [comprising 88 mM NaCl, 1 mM KCl, 2.4 mM NaHCO3, 0.82 mM MgSO4, 7.5 mM Tris-HCl (pH 7.6), 50 U/mL Nystatin (Sigma) and 0.1 mg/mL gentamycin (Sigma)] for 60 min., and then incubated overnight at 15° C. in 50% Leibowitz's L-15 media (Grand Island Biological Co. (GIBCO), Long Island, N.Y.). After overnight incubation the oocytes were mechanically defolliculated and then were injected with ASCT-1 RNA and incubated at 19° C. for 48 h (see Kim el al., 1991, Nature 352: 725-728 for further details of Xenopus oocyte preparation and microinjection).
(§2) Amino acid transport in such oocytes was assayed using [^3H] alanine, [^3H] serine or [^35S] cysteine (obtained from New England Nuclear, Boston, Mass.). Briefly, microinjected oocytes were […] at −60 mV using a Dagan TEV-200 clamp amplifier with an Axon Instruments (Foster City, Calif.) TL-1 A/D interface controlled by pCLAMP software (Axon Instruments) (see Kavanaugh et al., 1992, J. Biol. Chem. 267: 22007-22009 for a detailed review of this methodology) and continuously superfused with ND-96 buffer (consisting of 96 mM NaCl/2 mM KCl/1.8 mM CaCl2/1 mM MgCl2/5 mM HEPES, pH 7.5). For transport measurements, this solution was changed to a solution containing varying concentrations of the radiolabeled amino acids in ND-96 buffer.

Water-injected Oocytes = experiment: radiolabeled amino acid uptake in water-injected Xenopus oocytes; format: cell-based, Xenopus laevis; conditions: Amino Acid (1 mM); n = 5
Text: as §1
as §2, with “For transport measurements, this solution was changed to a solution containing varying concentrations of the radiolabeled amino acids in ND-96 buffer.” left out

[3] = molecular target: T1, human ASCT1 neutral amino acid transporter; experiment: amino acid-induced inward current in voltage-clamped ASCT1-injected Xenopus oocytes; format: cell-based; conditions: for Imax (maximal current): L-stereoisomer, current normalized to the maximum response obtained with L-alanine, mean ± standard error; for membrane response (inward Na+ currents) of ASCT1-injected oocytes: ND-96 buffer, clamped at −60 mV
Text: as §1, §2
More detailed analyses of ithe kinetics of amino acid influx were performed by least squares linear regression analysis of induced inward current ([I]) plotted as a function of substrate amino acid concentration ([S]), using the equation shown in the legend of Table II.

[4] = substrate: N[C@@H](CS)C(=O)O; experiment: cells, lysate or membranes; conditions: other: inward current vs extracellular substrate concentration
Description: as §3, §4

[5] = substrate: CC(C)[C@H](N)C(=O)O; experiment: amino acid-induced inward current in voltage-clamped ASCT1-injected Xenopus oocytes; format: cell-based, human; conditions: other: L-stereoisomer; least squares fit of induced inward current vs substrate concentration; mean ± standard error, at least 5 determinations
Description: (§5) Amino acid transport in such oocytes was assayed using [^3H] alanine, [^3H] serine or [^35S] cysteine (obtained from New England Nuclear, Boston, Mass.). Briefly, microinjected oocytes were patch-lamped at −60 mV using a Dagan TEV-200 clamp amplifier with an Axon Instruments (Foster City, Calif.) TL-1 A/D interface controlled by pCLAMP software (Axon Instruments) (see Kavanaugh et al., 1992, J. Biol. Chem. 267: 22007-22009 for a detailed review of this methodology) and continuously superfused with ND-96 buffer (consisting of 96 mM NaCl/2 mM KCl/1.8 mM CaCl2/1 mM MgCl2/5 mM HEPES, pH 7.5). For transport measurements, this solution was changed to a solution containing varying concentrations of the radiolabeled amino acids in ND-96 buffer.

[6] = substrate: N[C@@H](CO)C(=O)O; experiment: as above; format: cell-based, human; conditions: other: L-stereoisomer; least squares fit of induced inward current vs substrate concentration; mean ± standard error, at least 5 determinations
Description: as §5

[7] = substrate: N[C@@H](CS)C(=O)O; experiment: as above; format: cell-based, human; conditions: other: L-stereoisomer; least squares fit of induced inward current vs substrate concentration; mean ± standard error, at least 5 determinations
Description: as §5

[8] = substrate: C[C@@H](O)[C@H](N)C(=O)O; experiment: cells, lysate or membranes; conditions: other: L-stereoisomer; least squares fit of induced inward current vs substrate concentration; mean ± standard error, at least 5 determinations
[9] = substrate: C[C@H](N)C(=O)O; experiment: cells, lysate or membranes; conditions: other: L-stereoisomer; least squares fit of induced inward current vs substrate concentration; mean ± standard error, at least 5 determinations

Row | Molecule | rate of radiolabeled amino acid uptake, ASCT1 RNA-injected Oocytes [2] [pmol/min per oocyte] | rate of radiolabeled amino acid uptake, Water-injected Oocytes (Water-injected Oocytes) [pmol/min per oocyte] | Imax (maximal current) [3] | membrane response (inward Na+ currents) of ASCT1-injected oocytes [3] | electrogenic uptake in EAAT1-expressing oocytes [1] | also measured
1 | N[C@@H](CCC(=O)O)C(=O)O [L-glutamate] |  |  |  |  |  | extracellular concentration causing neuronal cell death (neuronal cell; Bouvier et al., 1992, Nicholls & Attwell): > 300 µM; extracellular concentration causing neuronal cell death (neuronal cell; for 5 min., Choi et al., 1987): > 5 µM; inward electric current in EAAT1-expressing oocytes (stereospecificity) [1]: did not result in the generation of an inward electric current; inward current in EAAT1-expressing oocytes ([1]; 100 μM in ND-96): inward currents as high as several microamps; Km ([1]; inward current vs extracellular substrate concentration): 54 µM
2 | N[C@@H](CS)C(=O)O [L-cysteine] | 19.2 ± 5.9 | 1.0 ± 0.3 | 1.0 ± 0.04 | hyperpolarization of the cell plasma membrane was produced | capable of being electrogenically transported | 
3 | C[C@H](N)C(=O)O [L-alanine] | 18 ± 2 | 0.6 ± 0.1 | (1.0) | hyperpolarization of the cell plasma membrane was produced | did not result in electrogenic uptake | 
4 | N[C@@H](CO)C(=O)O [L-serine] | 20 ± 5.1 | 0.4 ± 0.1 | 1.2 ± 0.08 | hyperpolarization of the cell plasma membrane was produced | did not result in electrogenic uptake | 
5 | human EAAT1 excitatory amino acid transporter (Homo sapiens) (protein) MTKSNGEEPKMGGRMERFQQGVRKRTLLAKKKVQNITKEDVKSYLFRNAFVLLTVTAVIVGTILGFTLRPYRMSYREVKYFSFPGELLMRMLQMLVLPLIISSLVTGMAALDSKASGKMGMRAVVYYMTTTIIAVVIGIIIVIIIHPGKGTKENMHREGKIVRVTAADAFLDLIRNMFPPNLVEACFKQFKTNYEKRSFKVPIQANETLVGAVINNVSEAMETLTRITEELVPVPGSVNGVNALGLVVFSMCFGFVIGNMKEQGQALREFFDSLNEAIMRLVAVIMWYAPVGILFLIAGKIVEMEDMGVIGGQLAMYTVTVIVGLLIHAVIVLPLLYFLVTRKNPWVFIGGLLQALITALGTSSSSATLPITFKCLEENNGVDKRVTRFVLPVGATINMDGTALYEALAAIFIAQVNNFELNFGQIITISITATAASIGAAGIPQAGLVTMVIVLTSVGLPTDDITLIIAVDWFLDRLRTTTNVLGDSLGAGIVEHLSRHELKNRDVEMGNSVIEENEMKKPYQLIAQDNETEKPIDSETKM |  |  |  |  |  | Km [4]: 300 µM
6 | human ASCT1 neutral amino acid transporter (Homo sapiens) (protein, expressed in transfected cells; host or cells: Xenopus laevis oocytes injected with in vitro transcribed RNA (pOTV vector)) MEKSNETNGYLDSAQAGPAAGPGAPGTAAGRARRCAGFLRRQALVLLTVSGVLAGAGLGAALRGLSLSRTQVTYLAFPGEMLLRMLRMIILPLVVCSLVSGAASLDASCLGRLGGIAVAYFGLTTLSASALAVALAFIIKPGSGAQTLQSSDLGLEDSGPPPVPKETVDSFLDLARNLFPSNLVVAAFRTYATDYKVVTQNSSSGNVTHEKIPIGTEIEGMNILGLVLFALVLGVALKKLGSEGEDLIRFFNSLNEATMVLVSWIMWYVPVGIMFLVGSKIVEMKDIIVLVTSLGKYIFASILGHVIHGGIVLPLIYFVFTRKNPFRFLLGLLAPFATAFATCSSSATLPSMMKCIEENNGVDKRISRFILPIGATVNMDGAAIFQCVAAVFIAQLNNVELNAGQIFTILVTATASSVGAAGVPAGGVLTIAIILEAIGLPTHDLPLILAVDWIVDRTTTVVNVEGDALGAGILHHLNQKATKKGEQELAEVKVEAIPNCKSEEETSPLVTHQNPAGPVASAPELESKESVL |  |  |  |  |  | Km [5]: 390 ± 8 µM; Km [6]: 88 ± 11 µM; Km [7]: 29 ± 6 µM; Km [8]: 137 ± 19 µM; Km [9]: 71 ± 14 µM
